# According to publication PMC6272301, “Inhibition of Oxidative Stress and Skin Aging-Related Enzymes by Prenylated Chalcones and Other Flavonoids from Helichrysum teretifolium” (Molecules, 2015):
# Values joined by “and” are separate entries in the source; they are usually repeats but may differ in a detail not shown here. Equal entries are not always repeated.
# What was measured:
# [1] = Automated ORAC assay, peroxyl radical (AAPH; ORAC ROO.); details: peroxyl radical from AAPH, 37 °C; Trolox equivalents
# Description: (§1) 3.4.2. Automated Oxygen Radicals Absorbance Capacity (ORAC) Assay
# (§2) ORAC was measured according to the method described by Prior [30], with some modifications. […] The copper-initiated prooxidant activity was calculated using [(AreaBlank − AreaSample)/AreaBlank] × 100 and expressed as prooxidant units; one unit equals the prooxidant activity that reduces the area under the fluorescein decay curve by 1% in the ORAC assay.
# [2] = Trolox equivalent absorbance capacity (TEAC) assay; details: Trolox equivalents; absorbance 734 nm, 25 °C
# Description: 3.4.3. Trolox Equivalent Absorbance Capacity (TEAC) Assay
# The total antioxidant activity of test samples were measured using previously described methods.
# [3] = Copper-initiated prooxidant activity in the ORAC assay (Cu2+ without H2O2); details: Cu2+ (CuSO4) 18 µM without H2O2, 37 °C; prooxidant (arbitrary) units
# Description: as §1, §2
# [4] = system: Fe (II)-induced microsomal lipid peroxidation (rat liver microsomes); assay: Inhibition of Fe (II)-induced microsomal lipid peroxidation; format: biochemical; details: TBARS, purified compounds screened at 26.750 μg/mL, extract (HT) at 100 μg/mL
# Source text: 3.4.4. Inhibition of Fe (II)-Induced Microsomal Lipid Peroxidation Assay
# A modified assay described by Snijman et al. with little modifications.
# [5] = Ferric-ion reducing antioxidant power assay (FRAP); details: ascorbic acid equivalents; absorbance 593 nm
# Description: 3.4.1. Ferric-Ion Reducing Antioxidant Power Assay (FRAP)
# Working FRAP reagent was prepared in accordance to the methods described previously. […] L-Ascorbic acid was used as a standard and the results were expressed as μM ascorbic acid equivalents per […] dry weight (μM AAE/g DW) of the test samples.
# [6] = target: T1, elastase (from porcine pancreas) (Sus scrofa, UniProt P00772); assay: Elastase inhibition assay; format: biochemical; details: substrate SANA, 100 μg/mL optimum concentration; for IC50: read-out: Inhibitory Activitis (IC50) Elastase (converted)
# T1 construct: purchased Sigma-Aldrich, Inc. (St. Louis, MO, USA); host or cells: porcine pancreas
# T1 sequence (P00772 27-266): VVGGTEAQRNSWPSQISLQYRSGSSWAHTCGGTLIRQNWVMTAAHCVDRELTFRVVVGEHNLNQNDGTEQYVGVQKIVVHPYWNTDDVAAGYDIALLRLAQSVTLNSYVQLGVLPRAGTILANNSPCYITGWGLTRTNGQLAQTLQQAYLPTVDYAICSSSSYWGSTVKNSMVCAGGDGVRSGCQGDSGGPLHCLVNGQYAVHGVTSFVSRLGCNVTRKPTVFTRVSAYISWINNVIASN
# Description: (§3) Organic solvents, methanol, acetonitrile (HPLC grade), ethanol, ethyl acetate, dichloromethane and hexane were supplied by Merck (Cape Town, South Africa). TLC was conducted on normal-phase (Merck) Silica gel 60 PF254 pre-coated aluminum plates. Column chromatography was performed using silica gel 60 H (0.040–0.063 mm particle size, Merck) and Sephadex LH-20 (Sigma-Aldrich, Cape Town, South Africa). NMR spectra were recorded on an Avance 400 MHz NMR spectrometer (Bruker, Rheinstetten, Germany) in deuterated chloroform and acetone, using the solvent signals as internal reference. HRMS analysis was conducted on an Ultimate 3000 LC (Dionex Sunnyvale, CA, USA) coupled to a Bruker QTOF with electrospray ionization (ESI) interface working in the positive ion mode.
# 3.4.6. Elastase Inhibition Assay
# Inhibition of elastase by the test samples was assayed using N-succyl-(Ala)3-nitroanilide (SANA) as the substrate, monitoring the release of p-nitroanilide by the method described by Chompo et al. with little adjustment. The inhibitory activity determined the intensity of colour released during cleavage of SANA by the action of elastase. Briefly, 1 mM SANA was prepared in 0.1 M Tris-HCl buffer pH 8.0 and 200 µL of this solution was added to the 20 µL of sample solution in a 96-Well plate. The mixtures were vortexed and preincubated for 10 min at 25 °C and then 20 µL of elastase from porcine pancrease (0.03 units/mL) was added. The mixtures were further incubated for 10 min and the absorbance was measured at 410 nm. Methanol was used as control, while oleanolic acid used as a positive control.
# [7] = Automated ORAC assay, hydroxyl radical (H2O2-Cu2+; ORAC OH.); details: hydroxyl radical from H2O2 0.3% - Cu2+ 18 µM, 37 °C; Trolox equivalents
# Description: as §1, §2
# [8] = target: tyrosinase (from mushroom) (Agaricus bisporus, UniProt C7FF04); assay: Tyrosinase enzyme assay; format: biochemical; details: substrate L-Tyrosine; screened at effective concentration of 50 μg/mL
# Chain of tyrosinase (from mushroom) (C7FF04 1-392): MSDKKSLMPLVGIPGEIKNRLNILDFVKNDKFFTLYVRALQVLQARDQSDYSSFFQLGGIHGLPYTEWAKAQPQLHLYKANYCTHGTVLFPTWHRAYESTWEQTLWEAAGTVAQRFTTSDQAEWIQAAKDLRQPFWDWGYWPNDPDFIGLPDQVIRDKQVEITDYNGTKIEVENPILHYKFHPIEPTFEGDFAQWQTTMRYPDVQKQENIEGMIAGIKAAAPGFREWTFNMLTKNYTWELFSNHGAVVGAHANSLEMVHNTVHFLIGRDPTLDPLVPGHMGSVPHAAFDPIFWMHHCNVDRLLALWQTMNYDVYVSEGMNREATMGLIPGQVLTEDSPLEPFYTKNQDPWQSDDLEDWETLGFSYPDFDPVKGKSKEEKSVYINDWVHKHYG
# Description: as §3
# Samples were dissolved in DMSO to a stock solution of 1 mg/mL, and further dilutions were then done with 50 mM sodium phosphate buffer (pH 6.5) for all working solutions. […] Incubation commenced for 30 min at room temperature and the enzyme activity was determined by measuring the absorbance at 490 nm.
Molecule,Inhibitory Activitis (IC50) Lipid Peroxidation [4],IC50 [6],Automated Oxygen Radical Absorbance Capacity (ORAC μM TE/g) ROO. [1],TEAC [2],Automated Oxygen Radical Absorbance Capacity (ORAC μM TE/g) Prooxidant [3],FRAP [5],Automated Oxygen Radical Absorbance Capacity (ORAC μM TE/g) OH. [7],Inhibitory Activitis (IC50) Elastase [6],Inhibitory Activitis (IC50) Tyrosinase [8]
"COc1ccc(-c2oc3cc(O)cc(O)c3c(=O)c2O)cc1O [Compound 8, 4'-methoxyquercetin]",6.449 µg/mL,274 µM,12.545 ± 5.07 μM/g × 10^3,1009.01 ± 1.98 μM TE/g,8.963 ± 2.79 µM/g,3584.17 ± 0.54 μM AAE/g,6.779 ± 3.40 μM/g × 10^6,,
isoxanthohumol [Compound 2],>26.750 µg/mL,,3.113 ± 17.59 μM/g × 10^3,4170.66 ± 6.72 μM TE/g,3.601 ± 2.23 µM/g,619.91 ± 1.97 μM AAE/g,2.910 ± 6.00 μM/g × 10^6,>100 µg/mL,>50 µg/mL
"COc1cc2oc(-c3ccccc3)cc(=O)c2c(O)c1OC [Compound 10, mosloflavone]",10.720 µg/mL,> 335 µM,2.403 ± 2.50 μM/g × 10^3,699.66 ± 2.28 μM TE/g,6.482 ± 1.55 µM/g,544.60 ± 6.98 μM AAE/g,2.909 ± 8.41 μM/g × 10^6,,
"CC(C)=CCc1c(O)cc2c(c1O)C(=O)C[C@@H](c1ccccc1)O2 [Compound 4, isoglabranin]",>26.750 µg/mL,> 308 µM,1.063 ± 33.50 μM/g × 10^3,43.17 ± 6.26 μM TE/g,3.947 ± 0.29 µM/g,7.052 ± 3.76 μM AAE/g,2.918 ± 4.13 μM/g × 10^6,,
"O=C(O[C@@H]1Cc2c(O)cc(O)cc2O[C@@H]1c1cc(O)c(O)c(O)c1)c1cc(O)c(O)c(O)c1 [EGCG, epigallocatechin gallate, reference compound]",0.929 µg/mL,,14.970 ± 5.53 μM/g × 10^3,11545.4 ± 17.28 μM TE/g,6.483 ± 1.19 µM/g,3326.45 ± 5.76 μM AAE/g,3.911 ± 4.65 μM/g × 10^6,,
"CC(C)=CCOc1cc(O)c(C(=O)/C=C/c2ccccc2)c2c1C=CC(C)(C)O2 [Compound 1, 2'-hydroxy-5',6'-(2,2-dimethylpyrano)-4'-(O-prenyl)-chalcone]",>26.750 µg/mL,> 256 µM,2.833 ± 3.88 μM/g × 10^3,,2.036 ± 2.98 µM/g,,2.998 ± 1.67 μM/g × 10^6,,

# The next lines start with results.
Inhibitory Activitis (IC50) Lipid Peroxidation [4],IC50 [6],Molecule,Automated Oxygen Radical Absorbance Capacity (ORAC μM TE/g) ROO. [1],TEAC [2],Automated Oxygen Radical Absorbance Capacity (ORAC μM TE/g) Prooxidant [3],FRAP [5],Automated Oxygen Radical Absorbance Capacity (ORAC μM TE/g) OH. [7],Inhibitory Activitis (IC50) Elastase [6],Inhibitory Activitis (IC50) Tyrosinase [8]
10.520 µg/mL,> 333 µM,"COc1ccc(-c2oc3cc(O)cc(O)c3c(=O)c2O)cc1 [Compound 9, 4'-methoxykaempferol]",10.491 ± 0.97 μM/g × 10^3,261.30 ± 4.02 μM TE/g,3.790 ± 1.15 µM/g,191.47 ± 1.39 μM AAE/g,3.675 ± 1.40 μM/g × 10^6,,
>26.750 µg/mL,> 308 µM,"CC(C)=CCc1c(O)cc(O)c2c1O[C@H](c1ccccc1)CC2=O [Compound 5, glabranin]",0.856 ± 17.35 μM/g × 10^3,204.15 ± 2.04 μM TE/g,2.971 ± 1.10 µM/g,67.79 ± 14.27 μM AAE/g,2.997 ± 0.36 μM/g × 10^6,,
21.276 µg/mL,> 308 µM,"CC(C)=CCc1c(O)cc(O)c(C(=O)/C=C/c2ccccc2)c1O [Compound 3, 2',4',6'-trihydroxy-3'-prenylchalcone]",5.025 ± 6.16 μM/g × 10^3,4529.01 ± 2.44 μM TE/g,4.704 ± 0.27 µM/g,817.94 ± 4.26 μM AAE/g,3.771 ± 3.02 μM/g × 10^6,,
2.931 µg/mL,,"O=c1c(O)c(-c2ccc(O)c(O)c2)oc2cc(O)cc(O)c12 [Compound 7, quercetin]",17.836 ± 2.90 μM/g × 10^3,1361.70 ± 1.98 μM TE/g,4.361 ± 0.78 µM/g,4816 ± 7.42 μM AAE/g and 4816.31 ± 7.42 μM AAE/g,7.265 ± 0.71 μM/g × 10^6,,
